Reference: patent US12023388B2, “Detection and treatment of caries and microcavities with nanoparticles” (THE REGENTS OF THE UNIVERSITY OF MICHIGAN, priority 2015, dated 2024)

Experiment: Cavity diagnosis testing under dental curing lamp with ImageJ image analysis
Parameters: species or system human
From the text: Extracted teeth are obtained from School of Dentistry, University of Michigan (human subjects exempt) and stored in 1% sodium azide before use. The teeth are painted with an acid resistant varnish leaving a 1 mm 2 enamel window on the buccal surface of the crowns of the teeth. […] At the completion of the demineralization, the teeth are rinsed with distilled H2O before subjected to caries activity test. Residual varnish is removed by washing in acetone.
Teeth are exposed to 20 microliters of sample for three minutes prior to rinsing in DI water. Rinsing is done initially for 10 seconds, and teeth are examined and photographed while illuminated with a standard dental curing lamp. Rinsing is continued for an additional 10 seconds, followed by imaging, and this is repeated for up to 5 minutes to determine “residence times” for each sample to optimize the exposure procedure.
After a 3 minute exposure followed by 20 seconds of rinsing, imaging is performed under the dental curing lamp.
Digital images are taken with a Nikon ABC camera and analyzed using ImageJ image analysis software. In particular, the “mean gray value” measurement tool is used to compare grayscale brightness between the carious lesion and the background tooth as a measurement of contrast. […]

## FITC-dextran
controls: rinse times of more than 20 seconds, cationic StNP: up to five minutes
  retention in carious lesions on rinsing in DI water: fully washed away
Versus untreated teeth / background tooth
  illumination of carious lesions (statistical analysis of percent intensity difference): did not illuminate carious lesions
